For test [1], the system named is MRSA ATCC33591. Briefly: MIC by broth microdilution assay according to CLSI. In kind it is cell-based, Staphylococcus aureus. As for the experimental part:
The MICs of endocardisin, vancomycin and daptomycin were determined by a broth microdilution assay according to Clinical Laboratory Standards Institute (CLSI). MIC is defined as the lowest drug concentration completely inhibiting organisms growth.

Test [2] has as its system MRSA ATCC33591. The test is described as follows: Experimental rabbit infective endocarditis model, Example 2 (dose response). The conditions noted are these: for Staphylococcus aureus densities, Kidneys / Staphylococcus aureus densities, Spleen / Staphylococcus aureus densities, Vegetations: rabbit, 3 days, 24 h after last dose. In kind it is in vivo, Staphylococcus aureus. The procedure:
Rabbit IE was induced following transcarotid-transaortic valve indwelling catheterization. At 24 hrs after iv infection with 10^6 cfu MRSA ATCC33591 (ID95 inoculum), animals received either:
i) no therapy (control); ii) endocardisin at 5, 10 or 20 mg/kg, iv, bid; iii) vancomycin at 15 mg/kg, iv, bid; or iv) daptomycin at 12 mg/kg, iv, once-daily;
All regimens were for 3 days. At 24 hours after the last antibiotic dose, target tissues were removed and quantitatively cultured.

Test [3] concerns MRSA ATCC33591. The test is described as follows: Experimental rabbit aortic infective endocarditis model, Example 1 (end of treatment and relapse). It is filed as in vivo, Staphylococcus aureus. The conditions noted are these: for Staphylococcus aureus densities, Kidneys / Staphylococcus aureus densities, Spleen / Staphylococcus aureus densities, Vegetations / Staphylococcus aureus densities, Kidneys (Relapse) / Staphylococcus aureus densities, Spleen (Relapse) / Staphylococcus aureus densities, Vegetations (Relapse): rabbit, iv, 3 days; for Staphylococcus aureus densities, Kidneys / Staphylococcus aureus densities, Spleen / Staphylococcus aureus densities, Vegetations: 24 h after last dose, mean ± SD; for Staphylococcus aureus densities, Kidneys (Relapse) / Staphylococcus aureus densities, Spleen (Relapse) / Staphylococcus aureus densities, Vegetations (Relapse): then drug-free for an extra 3 days. The procedure:
Experimental aortic infective endocarditis model was induced in New Zealand White rabbits with a methicillin-resistant Staphylococcus aureus (MRSA), strain ATCC33591, following trans-carotid-transaortic valve indwelling catheterization.
After aortic catheterization and 24 hr post-infection, animals were randomized to receive either:
i) no therapy (control); ii) endocardisin at 40 mg/kg, iv, twice daily; iii) vancomycin at 15 mg/kg, iv, twice daily; or iv) daptomycin at 12 mg/kg, iv, once daily (the latter two dose-strategies to mimic human-like PK).
Treatments lasted for 3 days. At 24 hours after the last antibiotic dose, half the animals were sacrificed with a lethal dose of sodium pentobarbital to test the treatment efficacies. The remaining animals resided drug-free for an extra 3 days for relapse studies. At sacrifice, vegetations, kidneys and spleen were removed and quantitatively cultured. […] Culture results were expressed as mean log10 CFU per gram of tissue (±SD).

3 compounds from patent US20110130326A1, “DEFENSINS FOR TREATMENT OF INFECTIVE ENDOCARDITIS” (Novozymes A/S, priority 2009, published 2011) can be followed below.

≈ marks a conversion by molar mass, not a printed value. Read-outs that look alike come from different tables or passages of the source. Marks after values point to notes of the source that are not given here.

Turning to `CCCCCCCCCC(=O)N[C@@H](Cc1c[nH]c2ccccc12)C(=O)N[C@H](CC(N)=O)C(=O)N[C@@H](CC(=O)O)C(=O)N[C@@H]1C(=O)NCC(=O)N[C@@H](CCCN)C(=O)N[C@@H](CC(=O)O)C(=O)N[C@H](C)C(=O)N[C@@H](CC(=O)O)C(=O)NCC(=O)N[C@H](CO)C(=O)N[C@@H]([C@H](C)CC(=O)O)C(=O)N[C@@H](CC(=O)c2ccccc2N)C(=O)O[C@@H]1C` [daptomycin], the MIC in the test on MRSA ATCC33591 [1] (Staphylococcus aureus, study strain MRSA ATCC33591, lowest drug concentration completely inhibiting growth, read-out: MIC) is 0.125 µg/mL (≈ 0.0771 µM). Further, in the test on MRSA ATCC33591 [2] (12 mg/kg, iv, once-daily), the “Staphylococcus aureus densities, Kidneys” value is listed as 0.76 +/− 0.53 log10 CFU/g tissue; the “Staphylococcus aureus densities, Spleen” value was 0.91 +/− 0.53 log10 CFU/g tissue; the “Staphylococcus aureus densities, Vegetations” value is 1.90 +/− 0.82 log10 CFU/g tissue. Further, in the test with MRSA ATCC33591 [3] (12 mg/kg, once-daily), the “Staphylococcus aureus densities, Kidneys” value is 0.76 +/− 0.52* log10 CFU/g tissue; the “Staphylococcus aureus densities, Spleen” value was 0.91 +/− 0.53* log10 CFU/g tissue; the “Staphylococcus aureus densities, Vegetations” value is 1.90 +/− 0.82* log10 CFU/g tissue; the “Staphylococcus aureus densities, Kidneys (Relapse)” value is 1.68 +/− 2.24** log10 CFU/g tissue. Moreover, in the test with MRSA ATCC33591 [3] (12 mg/kg, once-daily), the “Staphylococcus aureus densities, Spleen (Relapse)” value is on record as 1.30 +/− 1.48** log10 CFU/g tissue and the “Staphylococcus aureus densities, Vegetations (Relapse)” value is on record as 2.46 +/− 2.36** log10 CFU/g tissue.
The compound `CN[C@H](CC(C)C)C(=O)N[C@H]1C(=O)N[C@@H](CC(N)=O)C(=O)N[C@H]2C(=O)N[C@H]3C(=O)N[C@H](C(=O)N[C@H](C(=O)O)c4cc(O)cc(O)c4-c4cc3ccc4O)[C@H](O)c3ccc(c(Cl)c3)Oc3cc2cc(c3O[C@@H]2O[C@H](CO)[C@@H](O)[C@H](O)[C@H]2O[C@H]2C[C@](C)(N)[C@H](O)[C@H](C)O2)Oc2ccc(cc2Cl)[C@H]1O` [vancomycin] registered an MIC in the test on MRSA ATCC33591 [1] (Staphylococcus aureus) of 2 µg/mL (≈ 1.38 µM). Also, in the test on MRSA ATCC33591 [2] (15 mg/kg, iv, twice-daily), the “Staphylococcus aureus densities, Kidneys” value is listed as 3.07 +/− 0.53 log10 CFU/g tissue; the “Staphylococcus aureus densities, Spleen” value is recorded as 3.02 +/− 0.51 log10 CFU/g tissue; the “Staphylococcus aureus densities, Vegetations” value is listed as 5.60 +/− 1.47 log10 CFU/g tissue. In the test on MRSA ATCC33591 [3] (15 mg/kg, twice-daily), the “Staphylococcus aureus densities, Kidneys” value was 3.07 +/− 0.53 log10 CFU/g tissue; the “Staphylococcus aureus densities, Spleen” value is listed as 3.02 +/− 0.51 log10 CFU/g tissue; the “Staphylococcus aureus densities, Vegetations” value was 5.60 +/− 1.47 log10 CFU/g tissue; the “Staphylococcus aureus densities, Kidneys (Relapse)” value is listed as 4.69 +/− 1.63 log10 CFU/g tissue. In the test with MRSA ATCC33591 [3] (15 mg/kg, twice-daily), the “Staphylococcus aureus densities, Spleen (Relapse)” value was 3.98 +/− 1.27 log10 CFU/g tissue and the “Staphylococcus aureus densities, Vegetations (Relapse)” value is recorded as 6.36 +/− 1.57 log10 CFU/g tissue.
Consider “endocardisin: synthetic defensin; a polypeptide having the amino acid sequence shown in SEQ ID NO: 1 (GFGCNGPWNEDDLRCHNHCKSIKGYKGGYCAKGGFVCKCY)”, for which the MIC in the test on MRSA ATCC33591 [1] (study strain MRSA ATCC33591, lowest drug concentration completely inhibiting growth) came out at 0.5 micrograms/ml. In the test on MRSA ATCC33591 [2] (5, 10 or 20 mg/kg, iv, bid), the “dose dependence of therapeutic efficacy in all target tissues” value is on record as “dose-dependent therapeutic efficacy”. Moreover, in the test with MRSA ATCC33591 [2] (endocardisin at 20 mg/kg), the “reduction of MRSA densities in all target tissues vs. vancomycin therapy” value is “significantly greater efficacy”. In the test on MRSA ATCC33591 [2] (5 mg/kg, iv, twice-daily), the “Staphylococcus aureus densities, Kidneys” value was 4.33 +/− 1.27 log10 CFU/g tissue; the “Staphylococcus aureus densities, Spleen” value was 4.61 +/− 1.11 log10 CFU/g tissue; the “Staphylococcus aureus densities, Vegetations” value was 6.44 +/− 1.70 log10 CFU/g tissue. Moreover, in the test on MRSA ATCC33591 [2] (10 mg/kg, iv, twice-daily), the “Staphylococcus aureus densities, Kidneys” value is 3.19 +/− 1.06 log10 CFU/g tissue; the “Staphylococcus aureus densities, Spleen” value is listed as 2.62 +/− 0.60 log10 CFU/g tissue; the “Staphylococcus aureus densities, Vegetations” value is 4.74 +/− 1.84 log10 CFU/g tissue. In the test with MRSA ATCC33591 [2] (20 mg/kg, iv, twice-daily), the “Staphylococcus aureus densities, Kidneys” value was 0.61 +/− 0.21 log10 CFU/g tissue; the “Staphylococcus aureus densities, Spleen” value is on record as 0.61 +/− 0.12 log10 CFU/g tissue; the “Staphylococcus aureus densities, Vegetations” value is given as 1.57 +/− 0.75 log10 CFU/g tissue. In the test with MRSA ATCC33591 [3] (3 days drug-free after 3 days treatment), the preventing relapse entry is given as “most effective in preventing relapse”. Besides, the “reduction of MRSA densities in all target tissues as compared with vancomycin therapy” value in the test with MRSA ATCC33591 [3] (endocardisin 40 mg/kg iv twice daily, P<0.001) is listed as “significantly greater efficacy”. In the test on MRSA ATCC33591 [3] (40 mg/kg, twice-daily), the “Staphylococcus aureus densities, Kidneys” value is 1.18 +/− 0.75* log10 CFU/g tissue; the “Staphylococcus aureus densities, Spleen” value is recorded as 1.02 +/− 0.65* log10 CFU/g tissue; the “Staphylococcus aureus densities, Vegetations” value is 2.41 +/− 1.50* log10 CFU/g tissue; the “Staphylococcus aureus densities, Kidneys (Relapse)” value is on record as 0.75 +/− 0.79* log10 CFU/g tissue. Besides, in the test on MRSA ATCC33591 [3] (40 mg/kg, twice-daily), the “Staphylococcus aureus densities, Spleen (Relapse)” value is 1.17 +/− 0.70* log10 CFU/g tissue and the “Staphylococcus aureus densities, Vegetations (Relapse)” value is recorded as 1.45 +/− 0.64* log10 CFU/g tissue.
